A short description of data set [1]: Lipophilicity, shake-flask log D7.4 (1-octanol/PBS). The class given is physicochemical. The settings on record: 1-octanol/PBS pH 7.4, n = 4. The procedure:
Lipophilicity was determined with the shake-flask method as a distribution coefficient between 0.01 M PBS and octanol. Purified radiotracer [^18F]6 (10 μL, ∼200 kBq, 1.5 nmol), [^18F]14 (20 μL, ∼260 kBq, 125 pmol), or [^18F]15 (20 μL, 144 kBq, 67 pmol) in a polypropylene tube containing 1500–2000 μL of each in a 1:1 mixture (1-octanol, 0.02 M PBS, pH 7.4) was shaken mechanically (500 rpm, 10 min) and centrifuged (1000g, 5 min), and samples from each layer (400 μL, n = 4) were measured with a γ-counter. The log D7.4 was calculated as a distribution between the two layers at pH 7.4. [^18F]6 (10 MBq, 40 nmol) diluted with 0.01 M PBS at pH 7.4 (≤1% ethanol, 5300 μL) was incubated for 180 min. At selected time points (5, 30, 60, 90, 120, 150, and 180 min), a sample (100 μL) was injected to radio-HPLC. [^18F]14 and [^18F]15 (29 MBq, 10 nmol) diluted in 2000 μL of 0.01 M PBS (≤1% ethanol) were left to incubate. A sample of [^18F]14 (100 μL) after 9 hours and [^18F]15 at selected time points between 30 and 335 min were injected into HPLC (method A). [^18F]15 (0.6 MBq, 0.134 nmol, 200 μL) formulated in ≤5% EtOH-1 × PBS was added and incubated in 2000 μL of PBS-50% human plasma at 37 °C. A 100 μL sample (at 60, 120, 180, and 240 min, n = 2) was diluted with 200 μL of cold acetonitrile and centrifuged (10,000g, 5 min). After centrifugation, a 100 μL sample of the supernatant was injected for radio-HPLC analysis. […]
Lipophilicity. The lipophilicities were determined with the shake-flask method as a distribution profile between 0.01 M PBS and octanol at pH 7.4. The distribution of the radiolabeled compound between the octanol and the PBS layers was calculated according

Data set [2] can be described thus: Hydrolytic stability in 0.01 M PBS / formulated solution (radio-HPLC). The class given is physicochemical. The following applies: t = 3 h, 0.01 M PBS, pH 7.4. The procedure: Lipophilicity was determined with the shake-flask method as a distribution coefficient between 0.01 M PBS and octanol. Purified radiotracer [^18F]6 (10 μL, ∼200 kBq, 1.5 nmol), [^18F]14 (20 μL, ∼260 kBq, 125 pmol), or [^18F]15 (20 μL, 144 kBq, 67 pmol) in a polypropylene tube containing 1500–2000 μL of each in a 1:1 mixture (1-octanol, 0.02 M PBS, pH 7.4) was shaken mechanically (500 rpm, 10 min) and centrifuged (1000g, 5 min), and samples from each layer (400 μL, n = 4) were measured with a γ-counter. The log D7.4 was calculated as a distribution between the two layers at pH 7.4. [^18F]6 (10 MBq, 40 nmol) diluted with 0.01 M PBS at pH 7.4 (≤1% ethanol, 5300 μL) was incubated for 180 min. At selected time points (5, 30, 60, 90, 120, 150, and 180 min), a sample (100 μL) was injected to radio-HPLC. [^18F]14 and [^18F]15 (29 MBq, 10 nmol) diluted in 2000 μL of 0.01 M PBS (≤1% ethanol) were left to incubate. A sample of [^18F]14 (100 μL) after 9 hours and [^18F]15 at selected time points between 30 and 335 min were injected into HPLC (method A). [^18F]15 (0.6 MBq, 0.134 nmol, 200 μL) formulated in ≤5% EtOH-1 × PBS was added and incubated in 2000 μL of PBS-50% human plasma at 37 °C. A 100 μL sample (at 60, 120, 180, and 240 min, n = 2) was diluted with 200 μL of cold acetonitrile and centrifuged (10,000g, 5 min). After centrifugation, a 100 μL sample of the supernatant was injected for radio-HPLC analysis.

The nature of data set [3]: PET/CT and ex vivo biodistribution of [18F]6 in healthy mice. The following applies: i.v.; for bone uptake in tibia / gallbladder uptake: 270 min post injection. Details: species or system male SCID and female C57BL/6JRj mice. The procedure: [^18F]6 in 10% ethanol–0.01 M PBS was administered intravenously to male Fox Chase SCID mice (CB.17 SCID) (11.0 ± 0.5 MBq, ∼11 nmol, ∼150 μL, n = 4) and healthy female C57BL/6JRj mice (11.3 ± 0.3 MBq, ∼11 nmol, ∼150 μL, n = 4) under 2% isoflurane anesthesia. The PET/CT image was acquired with Inveon PET/CT for 60 min followed by a 15 min static scan 4 h after injection of the tracer. The images of the dynamic scan were reconstructed to time frames 60 × 10, 10 × 60, 4 × 300, and 3 × 600 s. After the second PET imaging (t = 270 ± 1.9 min post injection, n = 4), the organs were harvested and the radioactivity in each tissue sample was measured with a γ-counter and reported as a percentage of injected dose per gram of tissue (% ID/g). [^18F]15 was formulated in 4% ethanol in 0.01 M PBS and administered intravenously (0.2 nmol, 0.80 ± 0.30 MBq; tracer: 150 μL; tracer + blocking dose: 200 μL) to AR42J tumor-bearing Rj:NMRI-Foxn1^nu/nu mice (n = 4) under 2% isoflurane anesthesia. PET/CT images were acquired with Molecubes PET (β-CUBE) coupled with a CT (X-CUBE) (MOLECUBES NV, Ghent, Belgium) with two mice being imaged at the same time under 2% isoflurane anesthesia. Images were reconstructed to time frames 30 × 10, 15 × 60, 4 × 300, and 5 × 600 s. Quantitative image analysis was done with Carimas software (v 2.10, Turku PET Centre, Turku, Finland). Spherical ROIs were hand-drawn based on anatomical CT data and PET signal for the desired organs. The results are presented as standardized uptake values (SUVs).

A value given as a limit tells only on which side of the number the result lay.

In data set [1], `C[N+](C)(CCNC(=O)Cc1ccc(-c2nncnn2)cc1)C[B-](F)(F)[18F]` [[^18F]6] returned a logD of -0.13 ± 0.06. Besides, the “hydrolytic stability, intact” value in data set [2] is recorded as no less than 99%. For the same compound, in data set [3] (C57BL/6JRj female mice), the “bone uptake in tibia” value is recorded as 0.4 ± 0.1 % ID/g and the gallbladder uptake is reported as 6.4 ± 2.5 % ID/g. Moreover, in data set [3] (SCID male mice), the “bone uptake in tibia” value came to 0.3 ± 0.1 % ID/g and the gallbladder uptake was found to be 3.5 ± 2.4 % ID/g. The major elimination pathway result in data set [3] (PET/CT and ex vivo biodistribution 270 min post injection) is reported as “renal clearance”.

As a reminder, the logD is the decadic logarithm of the distribution of all forms, ionised or not, between an organic phase and buffer at a given pH.

(Values after article PMC9305971, “Development of [^18F]AmBF3 Tetrazine for Radiolabeling of Peptides: Preclinical Evaluation and PET Imaging of [^18F]AmBF3-PEG7-Tyr^3-Octreotide in an AR42J Pancreatic Carcinoma Model” (Bioconjugate Chemistry, 2022).)
